Consider 23 compounds from patent publication US20240018157A1, “CYCLIC COMPOUNDS AND METHODS OF USING SAME” (Schrödinger, Inc., priority 2019, published 2024).

In this assay the target is full-length MALT1 protein His-MALT1(1-824) (Homo sapiens (Human), UniProt Q9UDY8). The assay can be described thus: MALT1 protease assay, Assay 2 (1 nM MALT1, Ac-LRSR-AMC substrate). It counts as biochemical. The following applies: 1 nM MALT1, 50 μM Ac-LRSR-AMC, 2 h pre-incubation, 8 hr incubation at RT. How it is done: MALT1 protease activity was assessed in an in vitro assay using a tetrapeptide as substrate and full-length MALT1 protein His-MALT1(1-824) purified from baculovirus-infected insect cells.
full-length MALT1 protein His-MALT1(1-824), sequence (Q9UDY8 whole entry): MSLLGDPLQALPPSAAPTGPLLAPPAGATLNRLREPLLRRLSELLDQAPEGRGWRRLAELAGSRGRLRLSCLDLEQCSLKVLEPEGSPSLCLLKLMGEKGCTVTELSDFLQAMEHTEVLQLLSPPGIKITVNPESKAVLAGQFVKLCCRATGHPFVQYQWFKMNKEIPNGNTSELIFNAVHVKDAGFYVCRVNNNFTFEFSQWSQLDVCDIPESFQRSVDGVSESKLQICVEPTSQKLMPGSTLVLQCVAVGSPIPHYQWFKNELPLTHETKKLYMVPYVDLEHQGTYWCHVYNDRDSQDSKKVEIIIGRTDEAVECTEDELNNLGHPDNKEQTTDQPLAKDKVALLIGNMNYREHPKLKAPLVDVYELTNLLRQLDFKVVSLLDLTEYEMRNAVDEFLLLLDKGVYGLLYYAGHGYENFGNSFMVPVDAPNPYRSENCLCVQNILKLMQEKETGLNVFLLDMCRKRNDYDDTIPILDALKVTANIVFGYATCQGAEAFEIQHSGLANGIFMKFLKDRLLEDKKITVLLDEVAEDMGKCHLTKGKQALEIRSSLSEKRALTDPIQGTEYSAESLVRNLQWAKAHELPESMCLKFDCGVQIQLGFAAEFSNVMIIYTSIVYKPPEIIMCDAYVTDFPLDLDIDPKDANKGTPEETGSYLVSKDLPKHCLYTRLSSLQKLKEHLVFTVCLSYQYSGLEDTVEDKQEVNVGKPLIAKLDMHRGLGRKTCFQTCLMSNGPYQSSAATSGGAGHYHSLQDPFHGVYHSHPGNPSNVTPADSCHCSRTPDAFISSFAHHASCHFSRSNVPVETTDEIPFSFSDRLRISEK
The final assay buffer includes 1 nM (Assay 2) or 2 nM (Assay 1) of MALT1 full-length protein, 50 μM Ac-LRSR-AMC substrate, 50 mM Tris pH 7.5, 600 mM Sodium Citrate, 1 mM DTT, 1 mM EDTA, and 0.05% BSA in 384-well plate format using black microtiter square well plates (Optiplate 384-F, Perkin Elmer).
Test compounds were dissolved in 100% DMSO at stock of 10 mM, with final DMSO concentration 0.1%. Test compounds were pre-incubated with MALT1 protein for 2 h at room temperature. Substrate was added after the pre-incubation and fluorescence signal was measured using Envision at excitation 355 nm and emission 460 nm after 8 hr incubation at RT.
The fluorescence units were transformed to percentage of remaining activity by using the high control (HC, median of fluorescence signal from wells containing MALT1 protein, substrate, and DMSO) and low control (LC, median of fluorescence signal from wells with substrate only) with the formula below: […]
IC50 and Hill coefficient were obtained using Graph Pad Prism (Graph Pad software, Inc, USA) with non-linear regression analysis.
As usually defined, the IC50 is the concentration needed to halve the response being measured. Higher therefore signals weaker potency in that assay. For `C[C@@]1(C(F)(F)F)CN(C(=O)Nc2cc(NC3COC3)nc(C(F)(F)F)c2)c2cnc3cc(Cl)nn3c21` [compound 99, (R)-2-chloro-8-methyl-N-(2-(oxetan-3-ylamino)-6-(trifluoromethyl)pyridin-4-yl)-8-(trifluoromethyl)-7,8-dihydro-6H-pyrazolo[1,5-a]pyrrolo[2,3-e]pyrimidine-6-carboxamide], the IC50 lay within 100 to 1000 nM. The value for `C[C@@]1(C(F)(F)F)CN(C(=O)Nc2ccnc(C(F)(F)F)c2F)c2cnc3cc(Cl)nn3c21` [compound 100, (R)-2-chloro-N-(3-fluoro-2-(trifluoromethyl)pyridin-4-yl)-8-methyl-8-(trifluoromethyl)-7,8-dihydro-6H-pyrazolo[1,5-a]pyrrolo[2,3-e]pyrimidine-6-carboxamide] was 100 to 1000 nM; that for `CN(C)c1cc(NC(=O)N2C[C@@](C)(C(F)(F)F)c3c2cnc2cc(Cl)nn32)cnn1` [compound 101, (R)-2-chloro-N-(6-(dimethylamino)pyridazin-4-yl)-8-methyl-8-(trifluoromethyl)-7,8-dihydro-6H-pyrazolo[1,5-a]pyrrolo[2,3-e]pyrimidine-6-carboxamide] was 100 to 1000 nM. `C[C@@]1(C(F)(F)F)CN(C(=O)Nc2cc(C(F)F)on2)c2cnc3cc(Cl)nn3c21` [compound 102, (R)-2-chloro-N-(5-(difluoromethyl)isoxazol-3-yl)-8-methyl-8-(trifluoromethyl)-7,8-dihydro-6H-pyrazolo[1,5-a]pyrrolo[2,3-e]pyrimidine-6-carboxamide] had an IC50 of 100 to 1000 nM. The value for `C[C@@]1(C(F)(F)F)CN(C(=O)Nc2cc(C(F)F)ncn2)c2cnc3cc(Cl)nn3c21` [compound 106, (R)-2-chloro-N-(6-(difluoromethyl)pyrimidin-4-yl)-8-methyl-8-(trifluoromethyl)-7,8-dihydro-6H-pyrazolo[1,5-a]pyrrolo[2,3-e]pyrimidine-6-carboxamide] was 10 to 100 nM. With `C[C@@]1(C(F)(F)F)CN(C(=O)Nc2cc(C(F)F)n[nH]2)c2cnc3cc(Cl)nn3c21` [compound 107, (R)-2-chloro-N-(3-(difluoromethyl)-1H-pyrazol-5-yl)-8-methyl-8-(trifluoromethyl)-7,8-dihydro-6H-pyrazolo[1,5-a]pyrrolo[2,3-e]pyrimidine-6-carboxamide] the figure was 10 to 100 nM; with `C[C@@H](N)COc1cc(NC(=O)N2C[C@@](C)(C(F)(F)F)c3c2cnc2cc(Cl)nn32)cn(C(F)F)c1=O` [compound 109, (R)-N-(5-((R)-2-aminopropoxy)-1-(difluoromethyl)-6-oxo-1,6-dihydropyridin-3-yl)-2-chloro-8-methyl-8-(trifluoromethyl)-7,8-dihydro-6H-pyrazolo[1,5-a]pyrrolo[2,3-e]pyrimidine-6-carboxamide], 100 to 1000 nM. With `CN1CC(Oc2cc(NC(=O)N3C[C@@](C)(C(F)(F)F)c4c3cnc3cc(Cl)nn43)cn(C(F)F)c2=O)C1` [compound 110, (R)-2-chloro-N-(1-(difluoromethyl)-5-((1-methylazetidin-3-yl)oxy)-6-oxo-1,6-dihydropyridin-3-yl)-8-methyl-8-(trifluoromethyl)-7,8-dihydro-6H-pyrazolo[1,5-a]pyrrolo[2,3-e]pyrimidine-6-carboxamide] the figure was 100 to 1000 nM; with `CNc1nnc(C(F)(F)F)cc1NC(=O)N1C[C@@](C)(C(F)(F)F)c2c1cnc1cc(Cl)nn21` [compound 112, (R)-2-chloro-8-methyl-N-(3-(methylamino)-6-(trifluoromethyl)pyridazin-4-yl)-8-(trifluoromethyl)-7,8-dihydro-6H-pyrazolo[1,5-a]pyrrolo[2,3-e]pyrimidine-6-carboxamide], 100 to 1000 nM; with `CC1(C)CN=C(c2ncc(NC(=O)N3C[C@@](C)(C(F)(F)F)c4c3cnc3cc(Cl)nn43)cc2Cl)O1` [compound 118], 10 to 100 nM.

For the compound `CN1CC(Oc2cc(NC(=O)N3C[C@@](C)(C(F)(F)F)c4c3cnc3cc(Cl)nn43)cc(C(F)(F)F)n2)C1` [compound 121, (R)-2-chloro-8-methyl-N-(2-((1-methylazetidin-3-yl)oxy)-6-(trifluoromethyl)pyridin-4-yl)-8-(trifluoromethyl)-7,8-dihydro-6H-pyrazolo[1,5-a]pyrrolo[2,3-e]pyrimidine-6-carboxamide], the IC50 lay in the range of 10 to 100 nM. The value for `CN1CC(Oc2cc(NC(=O)N3C[C@@](C)(C(F)(F)F)c4c3cnc3cc(Cl)nn43)cc(C(F)F)n2)C1` [compound 130, (R)-2-chloro-N-(2-(difluoromethyl)-6-((1-methylazetidin-3-yl)oxy)pyridin-4-yl)-8-methyl-8-(trifluoromethyl)-7,8-dihydro-6H-pyrazolo[1,5-a]pyrrolo[2,3-e]pyrimidine-6-carboxamide] was 100 to 1000 nM; that for `C[C@@]1(C(F)(F)F)CN(C(=O)Nc2cc(C(F)(F)F)n[nH]2)c2cnc3cc(Cl)nn3c21` [compound 131, (R)-2-chloro-8-methyl-8-(trifluoromethyl)-N-(3-(trifluoromethyl)-1H-pyrazol-5-yl)-7,8-dihydro-6H-pyrazolo[1,5-a]pyrrolo[2,3-e]pyrimidine-6-carboxamide] was 10 to 100 nM. Regarding `CNc1cc(NC(=O)N2C[C@@](C)(C(F)(F)F)c3c2cnc2cc(Cl)nn32)cnc1-n1nccn1` [compound 132, (R)-2-chloro-8-methyl-N-(5-(methylamino)-6-(2H-1,2,3-triazol-2-yl)pyridin-3-yl)-8-(trifluoromethyl)-7,8-dihydro-6H-pyrazolo[1,5-a]pyrrolo[2,3-e]pyrimidine-6-carboxamide], the IC50 lay within 100 to 1000 nM.

In the case of `C[C@@]1(C(F)(F)F)CN(C(=O)Nc2cc(C(F)F)nnc2C#N)c2cnc3cc(Cl)nn3c21` [compound 143, (R)-2-chloro-N-(3-cyano-6-(difluoromethyl)pyridazin-4-yl)-8-methyl-8-(trifluoromethyl)-7,8-dihydro-6H-pyrazolo[1,5-a]pyrrolo[2,3-e]pyrimidine-6-carboxamide], the IC50 is 100 to 1000 nM. The compound `C[C@@]1(C(F)(F)F)CN(C(=O)Nc2cc(C(F)F)nnc2C(N)=O)c2cnc3cc(Cl)nn3c21` [compound 148, (R)-N-(3-carbamoyl-6-(difluoromethyl)pyridazin-4-yl)-2-chloro-8-methyl-8-(trifluoromethyl)-7,8-dihydro-6H-pyrazolo[1,5-a]pyrrolo[2,3-e]pyrimidine-6-carboxamide] came in with an IC50 of 100 to 1000 nM. For the compound `CC(C)(O)Cn1ccc(-c2ncc(NC(=O)N3C[C@@](C)(C(F)(F)F)c4c3cnc3cc(F)nn43)cc2C(F)F)n1` [compound 162, (R)-N-(5-(difluoromethyl)-6-(1-(2-hydroxy-2-methylpropyl)-1H-pyrazol-3-yl)pyridin-3-yl)-2-fluoro-8-methyl-8-(trifluoromethyl)-7,8-dihydro-6H-pyrazolo[1,5-a]pyrrolo[2,3-e]pyrimidine-6-carboxamide], the IC50 is 10 to 100 nM. The value for `Cn1cc(NC(=O)N2C[C@@](C)(C(F)(F)F)c3c2cnc2cc(Cl)nn32)cn1` [compound 164, (R)-2-chloro-8-methyl-N-(1-methyl-1H-pyrazol-4-yl)-8-(trifluoromethyl)-7,8-dihydro-6H-pyrazolo[1,5-a]pyrrolo[2,3-e]pyrimidine-6-carboxamide] was 100 to 1000 nM; that for `C[C@@]1(C(F)(F)F)CN(C(=O)NC2CCC3(CC2)CC3)c2cnc3cc(Cl)nn3c21` [compound 172, (R)-2-chloro-8-methyl-N-(spiro[2.5]octan-6-yl)-8-(trifluoromethyl)-7,8-dihydro-6H-pyrazolo[1,5-a]pyrrolo[2,3-e]pyrimidine-6-carboxamide] was 100 to 1000 nM; that for `CC(C)(O)c1cnn(-c2ncc(NC(=O)N3C[C@@](C)(C(F)(F)F)c4c3cnc3cc(Cl)nn43)cc2Cl)n1` [compound 180, (R)-2-chloro-N-(5-chloro-6-(4-(2-hydroxypropan-2-yl)-2H-1,2,3-triazol-2-yl)pyridine-3-yl)-8-methyl-8-(trifluoromethyl)-7,8-dihydro-6H-pyrazolo[1,5-a]pyrrolo[2,3-e]pyrimidine-6-carboxamide] was 100 to 1000 nM.

In the case of `Cc1cn2ccc3c(c2n1)C(C)(C(F)(F)F)CN3C(=O)Nc1cnc(-n2nccn2)c(Cl)c1` (centres unmarked) [compound 193, N-(5-chloro-6(2H-1,2,3-triazol-2-yl)pyridin-3-yl)-2,9-dimethyl-9-(trifluoromethyl)-8,9-dihydro-7H-imidazo[1,2-a]pyrrolo[3,2-c]pyridine-7-carboxamide], the IC50 is 10 to 100 nM. In turn, `CN1CC[C@H](Oc2cc(OC(F)F)cc(NC(=O)N3C[C@@](C)(C(F)(F)F)c4c3cnc3cc(Cl)nn43)n2)C1` [compound 198, (R)-2-chloro-N-(4-(difluoromethoxy)-6-(((S)-1-methylpyrrolidin-3-yl)oxy)pyridin-2-yl)-8-methyl-8-(trifluoromethyl)-7,8-dihydro-6H-pyrazolo[1,5-a]pyrrolo[2,3-e]pyrimidine-6-carboxamide] displayed an IC50 of 10 to 100 nM. In turn, `C[C@@]1(C(F)(F)F)CN(C(=O)Nc2cnc(C(=O)N3CCC3)c(C(F)F)c2)c2cnc3cc(Cl)nn3c21` [compound 203, (R)-N-(6-(azetidine-1-carbonyl)-5-(difluoromethyl)pyridin-3-yl)-2-chloro-8-methyl-8-(trifluoromethyl)-7,8-dihydro-6H-pyrazolo[1,5-a]pyrrolo[2,3-e]pyrimidine-6-carboxamide] yielded a 50% inhibitory concentration (IC50) of 100 to 1000 nM.
